The source of these data is patent US7829665B2 (priority 2005, dated 2010).

Where two headings read alike, the source gives them in different places.

Experiment [1] addresses T1, full-length NS3/NS4A-2 (HCV NS3 protease) (Hepatitis C virus genotype 1a, UniProt P27958).
T1 construct: Recombinant E. coli or Baculovirus full-length NS3 was diluted to 3.33 μM with assay buffer; made in house; host or cells: E. coli or baculovirus (BV) expression system
The experiment in a line: NS3-NS4 protease assay / NS3 inhibition assay (RETS1 substrate, fluorescence kinetic read). Type of experiment: biochemical. Summed up: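 Full-length NS3 from E. coli (2 nM in assay) or baculovirus (3 nM) was precomplexed with excess NS4A-2 peptide, then preincubated 10 min at room temperature with serially diluted compounds starting at 50 microM. Reaction was started with RETS1 substrate at 8 μM before addition and read kinetically for 30 min (ex 335/em 495 nm). Four-parameter IC50s were converted to Ki by Cheng-Prusoff using Km 2.03 μM (E. coli) or 1.74 μM (BV).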

Experiment [2] has as its system HCV sub-genomic replicon in GS4.3 cells (HuH-7 hepatoma cells). The experiment in a line: Quantitation by ELISA of Neomycin phosphotransferase II (NPTII) in the HCV sub-genomic replicon, GS4.3. The class given is cell-based, hepatitis C virus. Conditions: Hepatitis C virus, Huh-7; GS4.3 cells, 72 h incubation, NPTII ELISA; read-out: Replicon EC50. The essentials:
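HuH-7 GS4.3 cells carrying HCV sub-genomic replicon 1377/NS3-3′, treated 72 h at 37 °C without G418 with 3-fold dilutions from 10 μM to 56 pM (1% DMSO). NPTII in cell lysates measured by direct ELISA with TMB readout at 450 nm. EC50 from 4-parameter fit of percent DMSO-control signal.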

Where [3] appears, read: recombinant E. coli or Baculovirus full-length NS3 with NS4A-2, read-out: NS3-NS4 IC50.

T1 sequence (P27958 1027-1657): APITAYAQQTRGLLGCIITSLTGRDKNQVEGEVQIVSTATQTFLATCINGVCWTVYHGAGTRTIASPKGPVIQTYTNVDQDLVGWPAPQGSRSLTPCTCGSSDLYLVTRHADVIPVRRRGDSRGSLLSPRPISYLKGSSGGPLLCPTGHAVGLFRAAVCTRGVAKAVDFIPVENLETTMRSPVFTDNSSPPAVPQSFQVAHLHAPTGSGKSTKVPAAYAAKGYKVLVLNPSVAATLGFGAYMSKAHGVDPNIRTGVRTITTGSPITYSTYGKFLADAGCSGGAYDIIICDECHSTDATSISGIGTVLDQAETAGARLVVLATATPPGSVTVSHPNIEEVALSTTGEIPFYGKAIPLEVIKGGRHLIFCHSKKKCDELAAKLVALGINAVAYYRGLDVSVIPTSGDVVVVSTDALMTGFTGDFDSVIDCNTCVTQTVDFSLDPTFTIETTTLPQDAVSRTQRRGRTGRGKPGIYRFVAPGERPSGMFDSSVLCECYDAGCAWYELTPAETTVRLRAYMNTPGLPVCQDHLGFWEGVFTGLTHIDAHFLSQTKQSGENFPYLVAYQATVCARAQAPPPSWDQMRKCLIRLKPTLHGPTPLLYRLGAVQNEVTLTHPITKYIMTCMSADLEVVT

On to `CC(C)(C)OC(=O)N[C@H]1CCCCC/C=C\[C@@H]2C[C@@]2(C(=O)NS(=O)(=O)c2cccs2)NC(=O)[C@@H]2C[C@@H](OC(=O)N3Cc4cccc(Cl)c4C3)CN2C1=O` [Compound 166], for which the IC50 in experiment [1] (setting [3]) was under 100 nM. The EC50 in experiment [2] is under 100 nM.
Turning to `CC(C)(C)OC(=O)N[C@H]1CCCCC/C=C\[C@@H]2C[C@@]2(C(=O)Nc2n[nH]cc2C2CC2)NC(=O)[C@@H]2C[C@@H](OC(=O)N3Cc4cccc(F)c4C3)CN2C1=O` [Compound 636], the concentration for half-maximal inhibition (IC50) in experiment [1] (setting [3]) is under 1000 nM. In experiment [2], the EC50 is under 100 nM.
With `CC(C)(C)OC(=O)N[C@H]1CCCCC/C=C\[C@@H]2C[C@@]2(C(=O)NCC(O)(C(F)(F)F)C(F)(F)F)NC(=O)[C@@H]2C[C@@H](OC(=O)N3Cc4cccc(F)c4C3)CN2C1=O` [Compound 613], in experiment [1] (setting [3]), the concentration for half-maximal inhibition (IC50) is under 1000 nM. In addition, the half-maximal effective concentration (EC50) in experiment [2] is under 1000 nM.
For the molecule `O=C1N[C@]2(C(=O)NS(=O)(=O)C3CC3)C[C@H]2/C=C\CCCCC[C@H](Nc2c(NCC(F)(F)F)c(=O)c2=O)C(=O)N2C[C@H](OC(=O)N3Cc4cccc(F)c4C3)C[C@@H]12` [Compound 196], in experiment [1] (setting [3]), the IC50 was under 100 nM. For the same molecule, the concentration giving a half-maximal response (EC50) in experiment [2] was under 10000 nM.
As to `O=C1N[C@]2(C(=O)NS(=O)(=O)C3CC3)C[C@H]2/C=C\CCCCC[C@H](NC(=O)N2CCCC2)C(=O)N2C[C@H](OC(=O)N3Cc4cccc(F)c4C3)C[C@@H]12` [Compound 243], the 50% inhibitory concentration (IC50) in experiment [1] (setting [3]) was under 100 nM. Also, the concentration giving a half-maximal response (EC50) in experiment [2] was under 100 nM.
Regarding `C=CCC1(S(=O)(=O)NC(=O)[C@@]23C[C@H]2/C=C\CCCCC[C@H](NC(=O)OC(C)(C)C)C(=O)N2C[C@H](OC(=O)N4Cc5ccccc5C4)C[C@H]2C(=O)N3)CC1` [Compound 105], the IC50 in experiment [1] (setting [3]) was under 100 nM. In experiment [2], the concentration for a half-maximal effect (EC50) was under 100 nM.
`O=C(NC1CCCC1)N[C@H]1CCCCC/C=C\[C@@H]2C[C@@]2(C(=O)NS(=O)(=O)C2CC2)NC(=O)C2C[C@@H](OC(=O)N3Cc4cccc(F)c4C3)CN2C1=O` (stereo partly shown) [Compound 178]: the IC50 in experiment [1] (setting [3]) is under 100 nM. The EC50 in experiment [2] was under 100 nM.
`CC(C)(C)c1csc(N[C@H]2CCCCC/C=C\[C@@H]3C[C@@]3(C(=O)NS(=O)(=O)C3CC3)NC(=O)[C@@H]3C[C@@H](OC(=O)N4Cc5cccc(F)c5C4)CN3C2=O)n1` [Compound 925]: the concentration for half-maximal inhibition (IC50) in experiment [1] (setting [3]) was under 100 nM. The EC50 in experiment [2] was under 100 nM.
For the molecule `CC(C)(C)OC(=O)N[C@H]1COCCCCC[C@@H]2C[C@@]2(C(=O)NS(=O)(=O)C2CC2)NC(=O)[C@@H]2C[C@@H](OC(=O)N3Cc4cccc(F)c4C3)CN2C1=O` [Compound 1022, (2R,6S,13aR,14aR,16aS)-6-(tert-butoxycarbonylamino)-14a-(cyclopropylsulfonylcarbamoyl)-5,16-dioxohexadecahydro-1H-cyclopropa(i)pyrrolo[1,2-e][1,5,8]oxadiazacyclopentadecin-2-yl 4-fluoroisoindoline-2-carboxylate], in experiment [1] (setting [3]), the IC50 was under 100 nM. Further, the EC50 in experiment [2] is under 100 nM.
With `O=C1N[C@]2(C(=O)NS(=O)(=O)C3CC3)C[C@H]2/C=C\CCCCC[C@H](NCC(F)(F)F)C(=O)N2C[C@H](OC(=O)N3Cc4cccc(F)c4C3)C[C@@H]12` [Compound 921], in experiment [1] (setting [3]), the half-inhibitory concentration (IC50) is under 100 nM. The half-maximal effective concentration (EC50) in experiment [2] was under 1000 nM.
Regarding `CC(C)(C)OC(=O)N[C@H]1CCCCC/C=C\[C@@H]2C[C@@]2(C(=O)NCC2CC2)NC(=O)[C@@H]2C[C@@H](OC(=O)N3Cc4cccc(F)c4C3)CN2C1=O` [Compound 603], the IC50 in experiment [1] (setting [3]) was under 1000 nM. Further, the EC50 in experiment [2] is under 1000 nM.
Regarding `O=C(CCC(F)(F)F)N[C@H]1CCCCC/C=C\[C@@H]2C[C@@]2(C(=O)O)NC(=O)[C@@H]2C[C@@H](OC(=O)N3Cc4ccccc4C3)CN2C1=O` [Compound 136], in experiment [1] (setting [3]), the half-maximal inhibitory concentration (IC50) is under 100 nM. In experiment [2], the half-maximal effective concentration (EC50) is over 10000 nM.
With `CC(C)(C)OC(=O)N[C@H]1CCCCC/C=C\[C@@H]2C[C@@]2(C(=O)O)NC(=O)[C@@H]2C[C@@H](OC(=O)N3Cc4ccc(N5CCOCC5)cc4C3)CN2C1=O` [Compound 176], the IC50 in experiment [1] (setting [3]) was under 100 nM. In addition, the EC50 in experiment [2] was over 10000 nM.
As for `CN(C)C(=O)[C@@]12C[C@H]1/C=C\CCCCC[C@H](NC(=O)OC(C)(C)C)C(=O)N1C[C@H](OC(=O)N3Cc4cccc(F)c4C3)C[C@H]1C(=O)N2` [Compound 610], the IC50 in experiment [1] (setting [3]) is under 1000 nM. The EC50 in experiment [2] is over 10000 nM.
For `CC(C)(C)CCN[C@H]1CCCCC/C=C\[C@@H]2C[C@@]2(C(=O)NS(=O)(=O)C2CC2)NC(=O)[C@@H]2C[C@@H](OC(=O)N3Cc4cccc(F)c4C3)CN2C1=O` [Compound 912], the IC50 in experiment [1] (setting [3]) is under 100 nM. Besides, the EC50 in experiment [2] was under 100 nM.
With `O=C1N[C@]2(C(=O)NS(=O)(=O)C3CC3)C[C@H]2/C=C\CCCCC[C@H](NCc2cccc(C(F)(F)F)c2)C(=O)N2C[C@H](OC(=O)N3Cc4cccc(F)c4C3)C[C@@H]12` [Compound 901, (1S,4R,6S,14S,18R)-14-(3-(trifluoromethyl)benzylamino)-4-(cyclopropanesulfonyl)aminocarbonyl-18-(4-fluoro-1,3-dihydro-isoindole-2-carbonyloxyl)-2,15-dioxo-3,16-diaza-tricyclo[14.3.0.0^4,6]nonadec-7-ene], the IC50 in experiment [1] (setting [3]) was under 100 nM. Also, the half-maximal effective concentration (EC50) in experiment [2] is under 100 nM.
Consider `O=C(N[C@H]1CCCCC/C=C\[C@@H]2C[C@@]2(C(=O)NS(=O)(=O)N2CC(F)(F)C2)NC(=O)C2C[C@@H](OC(=O)N3Cc4cccc(Cl)c4C3)CN2C1=O)OC1CCCC1` (stereo partly shown) [Compound 228], for which, in experiment [1] (setting [3]), the half-inhibitory concentration (IC50) is under 100 nM. In addition, the concentration giving a half-maximal response (EC50) in experiment [2] was under 100 nM.
Consider `CC(C)(C)NC(=O)N[C@H]1CCCCC/C=C\[C@@H]2C[C@@]2(C(=O)O)NC(=O)C2C[C@@H](OC(=O)N3Cc4cccc(Cl)c4C3)CN2C1=O` (stereo partly shown) [Compound 177], for which the IC50 in experiment [1] (setting [3]) was under 100 nM. Besides, in experiment [2], the EC50 was under 10000 nM.
In the case of `O=C1N[C@]2(C(=O)NS(=O)(=O)C3CC3)C[C@H]2/C=C\CCCCC[C@H](Nc2nc(-c3ccccc3)cs2)C(=O)N2C[C@H](OC(=O)N3Cc4cccc(F)c4C3)C[C@@H]12` [Compound 927, (2R,6S,13aS,14aR,16aS,Z)-14a-(cyclopropylsulfonylcarbamoyl)-5,16-dioxo-6-(4-phenylthiazol-2-ylamino)-1,2,3,5,6,7,8,9,10,11,13a,14,14a,15,16,16a-hexadecahydrocyclopropa[e]pyrrolo[1,2-a][1,4]diazacyclopentadecin-2-yl 4-fluoroisoindoline-2-carboxylate], the IC50 in experiment [1] (setting [3]) was under 100 nM. Further, the EC50 in experiment [2] was under 100 nM.
Turning to `O=C(N[C@H]1CCC(F)(F)CC/C=C\[C@@H]2C[C@@]2(C(=O)NS(=O)(=O)C2CC2)NC(=O)[C@@H]2C[C@@H](OC(=O)N3Cc4cccc(F)c4C3)CN2C1=O)OC1CCCC1` [Compound 1004], the half-maximal inhibitory concentration (IC50) in experiment [1] (setting [3]) is under 100 nM. In addition, in experiment [2], the 50% effective concentration (EC50) is under 100 nM.
With `O=C(N[C@H]1CCCCC/C=C\[C@@H]2C[C@@]2(C(=O)NS(=O)(=O)c2ccccc2)NC(=O)[C@@H]2C[C@@H](OC(=O)N3CCc4ccccc4C3)CN2C1=O)OC1CCCC1` [Compound 117], in experiment [1] (setting [3]), the IC50 was under 100 nM. The EC50 in experiment [2] is under 100 nM.
Consider `O=C(NC1CCCC1)N[C@H]1CCCCC/C=C\[C@@H]2C[C@@]2(C(=O)NS(=O)(=O)C2CC2)NC(=O)C2C[C@@H](OC(=O)N3Cc4cccc(Cl)c4C3)CN2C1=O` (stereo partly shown) [Compound 180], for which, in experiment [1] (setting [3]), the half-maximal inhibitory concentration (IC50) is under 100 nM. In addition, the EC50 in experiment [2] was under 100 nM.
With `CC(C)(C)OC(=O)N[C@H]1CCC(F)(F)CC/C=C\[C@@H]2C[C@@]2(C(=O)O)NC(=O)[C@@H]2C[C@@H](OC(=O)N3Cc4cccc(F)c4C3)CN2C1=O` [Compound 1001], the half-inhibitory concentration (IC50) in experiment [1] (setting [3]) is under 100 nM. In addition, the EC50 in experiment [2] is under 10000 nM.
Regarding `O=C1N[C@]2(C(=O)NS(=O)(=O)C3CC3)C[C@H]2/C=C\CCCCC[C@H](Nc2c(N3CCCC3)c(=O)c2=O)C(=O)N2C[C@H](OC(=O)N3Cc4cccc(F)c4C3)C[C@@H]12` [Compound 197], the IC50 in experiment [1] (setting [3]) was under 100 nM. Moreover, the EC50 in experiment [2] was under 10000 nM.
For `N[C@H]1CCCCC/C=C\[C@@H]2C[C@@]2(C(=O)NS(=O)(=O)c2cccs2)NC(=O)[C@@H]2C[C@@H](OC(=O)N3Cc4cccc(Cl)c4C3)CN2C1=O` [Compound 169], in experiment [1], the IC50 was under 100 nM. Besides, the EC50 in experiment [2] is under 10000 nM.
For `CC(C)(C)OC(=O)N[C@H]1CCCCC/C=C\[C@@H]2C[C@@]2(C(=O)NCc2cccc(C(O)C(F)(F)F)c2)NC(=O)[C@@H]2C[C@@H](OC(=O)N3Cc4cccc(F)c4C3)CN2C1=O` (stereo partly shown) [Compound 605], the IC50 in experiment [1] (setting [3]) is under 1000 nM. For the same molecule, the EC50 in experiment [2] is under 1000 nM.
Regarding `CCCNC(=O)[C@@]12C[C@H]1/C=C\CCCCC[C@H](NCc1ccc(F)c(F)c1)C(=O)N1C[C@H](OC(=O)N3Cc4cccc(F)c4C3)C[C@H]1C(=O)N2` [Compound 625], in experiment [1] (setting [3]), the IC50 was under 10000 nM. In addition, the concentration for a half-maximal effect (EC50) in experiment [2] is under 10000 nM.
Regarding `COC(=O)c1cccc(CNC(=O)[C@@]23C[C@H]2/C=C\CCCCC[C@H](NC(=O)OC(C)(C)C)C(=O)N2C[C@H](OC(=O)N4Cc5cccc(F)c5C4)C[C@H]2C(=O)N3)c1` [Compound 602], the IC50 in experiment [1] (setting [3]) is under 1000 nM. In addition, the concentration giving a half-maximal response (EC50) in experiment [2] was under 1000 nM.
As for `O=C1N[C@]2(C(=O)NS(=O)(=O)C3CC3)C[C@H]2/C=C\CCCCC[C@H](NC(=S)N2CCCC2)C(=O)N2C[C@H](OC(=O)N3Cc4cccc(F)c4C3)C[C@@H]12` [Compound 244], the IC50 in experiment [1] (setting [3]) was under 100 nM. Moreover, the EC50 in experiment [2] was under 100 nM.
